Measured values reported in patent US9522881B2, “Hydroxyindole carboxylic acid based inhibitors for oncogenic Src homology-2 domain containing protein tyrosine phosphatase-2 (SHP2)” (Indiana University Research and Technology Corporation, priority 2013, dated 2016).
Entries after “also recorded” stand apart in the source; their conditions may differ.

Tests used:
[1] = biological target: MKP5 (Homo sapiens (Human), UniProt Q9Y6W6); assay: PTP selectivity panel, pNPP; type: biochemical, mammalian; details: pNPP at Km
Sequence of MKP5 (Q9Y6W6 whole entry, species assumed): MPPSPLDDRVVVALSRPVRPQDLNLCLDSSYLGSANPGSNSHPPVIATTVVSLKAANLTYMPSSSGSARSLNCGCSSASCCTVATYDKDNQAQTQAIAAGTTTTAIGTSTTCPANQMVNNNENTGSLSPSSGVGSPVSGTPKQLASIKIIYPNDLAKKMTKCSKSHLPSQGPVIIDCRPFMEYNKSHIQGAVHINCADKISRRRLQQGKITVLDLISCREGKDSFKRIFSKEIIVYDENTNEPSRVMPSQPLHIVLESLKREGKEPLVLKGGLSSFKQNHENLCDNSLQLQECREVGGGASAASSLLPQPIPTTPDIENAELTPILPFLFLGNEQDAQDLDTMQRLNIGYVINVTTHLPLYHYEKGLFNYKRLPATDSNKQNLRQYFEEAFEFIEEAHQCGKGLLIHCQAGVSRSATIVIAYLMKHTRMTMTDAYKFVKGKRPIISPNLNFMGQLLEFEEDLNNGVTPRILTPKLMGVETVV

[2] = tested on: SKBR3 cells; assay: SKBR3 breast cancer cell growth in Matrigel; type: cell-based
Description: Approximately 300,000 SKBR3 cells were seeded into 150 μl of growth factor reduced Matrigel (Corning, Corning, N.Y.) in 35 mm dishes. To 3 dishes for each condition, 2 mL of media containing either 10 μl vehicle (DMSO) or compound 11a-1 at the indicated concentration was then added. Every 24 hours, the cells were imaged with a NIKON SMZ1500 stereomicroscoppe. The cross-sectional area of individual colonies from each image were measured using Adobe Photoshop software. After 4 days, the cells were recovered from the Matrigel and lysed in PLC buffer containing protease inhibitor cocktail (Cat. No. P8340; Sigma-Aldrich, St. Louis, Mo.). Lysates were then resolved by SDS-PAGE and relative levels of the indicated proteins were detected by immunoblot analysis.

[3] = tested on: EGF-induced Erk1/2 phosphorylation; assay: EGF-induced Erk1/2 phosphorylation in H1975 cells (immunoblot); type: cell-based, human
Description: For biochemical studies, H1975 cells were serum-starved overnight followed by treatment with vehicle or compound 11a-1 for 3 hours, and then either left unstimulated or stimulated with 5 ng/ml EGF (Sigma, St. Louis, Mo.) for 60 minutes. Lysates were then resolved by SDS-PAGE and the protein phosphorylation levels were detected by immunoblot analysis. Specifically, cells were lysed in lysis buffer (1.0% Nonidet P-40, 50 mM Tris-HCl (pH 7.4), 150 mM NaCl, 5 mM EDTA, 2 mM NaVO3, 10 mM NaF) plus a protease inhibitor mixture available from Roche (Basel, Switzerland) and centrifuged at 10,000 rpm for 5 minutes at 4° C. Supernatants were collected and protein concentration was determined using the BCA protein assay (ThermoFisher Scientific, Rockford, Ill.). Equal amount of protein extracts were mixed with gel loading buffer and separated on SDS-PAGE. After electrophoresis, the proteins were transferred onto nitrocellulose membranes and nonspecific binding was blocked with 5% nonfat dry milk in Tris-buffered saline containing 0.1% Tween-20 (TBS-T). Membranes were then probed with various antibodies overnight at 4° C. on a rocker. After incubation, membranes were washed with TBS-T and incubated with appropriate horseradish peroxidase (HRP)-conjugated secondary antibodies for 1 hour at room temperature. Finally, the proteins on the membranes were detected using SuperSignal West Dura Luminol/Enhancer solution (ThermoFisher Scientific, Rockford, Ill.) and membranes were analyzed using Bio-Rad ChemiDoc XRS Imaging System.

Cn1c(-c2cccc(NC(=O)C(=O)Nc3ccc(-c4ccsc4)cc3)c2)c(I)c2cc(C(=O)O)c(O)cc21 [11a-1, 6-hydroxy-3-iodo-1-methyl-2-(3-(2-oxo-2-((4-(thiophen-3-yl)phenyl)amino)acetamido)phenyl)-1H-indole-5-carboxylic acid]
IC50 [1]: 2900 ± 100 nM | growth of SKBR3 cells in Matrigel ([2]; 3 μM, within 24 hours): potently inhibited | ErbB2+ breast cancer cell growth in a 3D Matrigel environment ([2]; SKBR3, over 4 days, indicated concentrations): inhibited | reduction of Erk1/2 phosphorylation ([3]; H1975 cells, 2 μM): 40% | effect on EGF-induced Erk1/2 phosphorylation ([3]; H1975 cells, dose-dependent): effectively reduced; also recorded: decreased | ability to inhibit EGF-mediated Erk1/2 activation in SHP2 knocked down cells ([3]; SHP2 knocked down with siRNA): blunted
